Literature values as cited in US20250367137A1, “Phloroglucinol Formulations And Methods Of Use” (priority 2022, published 2025).

Test system: irritable bowel syndrome (IBS) sufferers
Settings: placebo-controlled trials

Compound: Oc1cc(O)cc(O)c1 [phloroglucinol]
- improvement in pain and stool frequency: statistically significant improvement
